Experiments:
in vivo = assay type: in vivo, rats; conditions: rat; for drop of concentration in liver / drop of concentration in plasma: 2 weeks
Protocol: A single dose PK study of ALC-0315 and […] following intravenous (IV) bolus injection of a nanparticle formulation in rats was conducted to assess the PK and metabolism of lipid excipients ALC-0315 and ALC-0159.

[1] = assay type: in vitro ADME, mice, rats, monkeys, humans; conditions: blood, microsomes, S9, hepatocytes; rat samples
Protocol: In vitro metabolism of ALC-0315 and ALC-0159 was evaluated in blood, liver microsomes, S9 fractions, and hepatocytes from mice, rats, monkeys, and humans. In vivo metabolism was examined in rat plasma, urine, faeces, and liver samples from the PK study. […] ALC-0315 and ALC-0159 are apparently metabolised by hydrolytic metabolism of the ester and amide functionalities, respectively, and this hydrolytic metabolism is observed across the species evaluated.

luciferase expression = assay type: in vivo, mice; conditions: ALC-0315/DSPC/CHOL/ALC-0159 prototype; IV

Molecule	half-life (in vivo; in vivo, IV bolus, read-out: apparent terminal t½ in plasma and liver) [h]	eliminated unchanged in faeces (in vivo) [%]	drop of concentration in liver (in vivo; IV bolus) [fold]	drop of concentration in plasma (in vivo; IV bolus)	metabolism in vitro and in vivo [1]	unchanged material in urine or faeces (in vivo)	apparent terminal t½ in plasma and liver (in vivo; IV bolus) [h]	in vivo potency of Luc RNA LNP vs internal benchmark ALC-0218 (luciferase expression)
CCCCCCCCCCCCCCN(CCCCCCCCCCCCCC)C(=O)COCCOCCOCCOCCOCCOCCOCCOCCOCCOCCOCCOCCOCCOCCOCCOCCOCCOCCOCCOCCOCCOCCOCCOCCOCCOCCOCCOCCOCCOCCOCCOCCOCCOCCOCCOCCOCCOCCOCCOCCOCCOCCOCCOCCOCCOC [ALC-0159, 2-[(polyethylene glycol)-2000]-N,N-ditetradecylacetamide]	48 to 72	50	> 250	approximately 8000 fold	relatively slowly			
((4-hydroxybutyl)azanediyl)bis(hexane-6,1-diyl)bis(2-hexyldecanoate) [ALC-0315]			~4	approximately 7000 fold	relatively slowly	little to no unchanged material was detected	140 to 190	improved potency

Source: patent US12133899B2 (priority 2020, dated 2024)
